The values that follow come from ChEMBL document CHEMBL2146373, “How to blast osteoblasts? Novel dicarba analogues of amylin-(1-8) to treat osteoporosis” (Bioorg Med Chem, 2012).

In this assay the test system is Osteoblast. The assay is described as follows: Osteoblast activity in neonatal rat calvarie-derived primary osteoblasts assessed as [3H]thymidine incorporation at 10^-10 to 10^-8 M by beta counting. The format is functional, cell-based. (In general: Incorporation of labelled thymidine or its analogues reports DNA synthesis.)

Active and inactive are the calls of the source. No cut-off for these calls is given here.

On to `C[C@H](NC(=O)[C@@H]1CC=CC[C@H](NC(=O)[C@@H](N)CCCCN)C(=O)N[C@@H](CC(N)=O)C(=O)N[C@@H]([C@@H](C)O)C(=O)N[C@@H](C)C(=O)N[C@@H]([C@@H](C)O)C(=O)N1)C(N)=O` (mixture of isomers), for which the result was Active.

Turning to `C[C@H](NC(=O)[C@@H]1CC=CC[C@H](NC(=O)[C@@H](N)CCCCN)C(=O)N[C@@H](CC(N)=O)C(=O)N2CCC[C@H]2C(=O)N[C@@H](C)C(=O)N[C@@H]([C@@H](C)O)C(=O)N1)C(N)=O` (mixture of isomers; 2a), the result was inactive.

For the compound `C[C@H](NC(=O)[C@@H]1CC=CC[C@H](NC(=O)[C@@H](N)CCCCN)C(=O)N[C@@H](CC(N)=O)C(=O)N2CCC[C@H]2C(=O)N[C@@H](C)C(=O)N[C@@H]([C@@H](C)O)C(=O)N1)C(N)=O` (mixture of isomers; 2b), the outcome was inactive.

With `C[C@H](NC(=O)[C@@H]1CCCCNC(=O)OCC=CCOC(=O)NCCCC[C@H](NC(=O)[C@@H](N)CCCCN)C(=O)N[C@@H](CC(N)=O)C(=O)N[C@@H]([C@@H](C)O)C(=O)N[C@@H](C)C(=O)N[C@@H]([C@@H](C)O)C(=O)N1)C(N)=O` (mixture of isomers; 5a), the result was Active.

On to `C[C@H](NC(=O)[C@@H]1CCCCNC(=O)OCC=CCOC(=O)NCCCC[C@H](NC(=O)[C@@H](N)CCCCN)C(=O)N[C@@H](CC(N)=O)C(=O)N[C@@H]([C@@H](C)O)C(=O)N[C@@H](C)C(=O)N[C@@H]([C@@H](C)O)C(=O)N1)C(N)=O` (mixture of isomers; 5b), for which the result was Active.
